# Assay results as given in patent publication US20110118239A1, “PREPARATION AND ENANTIOMERIC SEPARATION OF 7-(3-PYRIDINYL)-1,7-DIAZASPIRO[4.4]NONANE AND NOVEL SALT FORMS OF THE RACEMATE AND ENANTIOMERS” (Targacept, Inc., priority 2008, published 2011).
# Like-named read-outs stand apart in the source and are kept apart here.
# Tests used:
# [1] = Single rising dose (SRD) study of Compound C, plasma pharmacokinetics of racemate and enantiomers; type: in vivo; settings: for t1/2 (mean) / Cmax / Tmax / AUC(0-inf) / half-life: plasma; for t1/2 (mean): Table 3; for Cmax / Tmax / AUC(0-inf) / half-life: human; for AUC(0-inf): read-out: AUCinf (mean)
# Experimental: A single, rising dose (SRD) study was performed with Compound C (the racemate). Plasma samples were analyzed for the content of the two enantiomers, Compound A (substantially pure R), Compound B (substantially pure S). Three dose groups (Compound C) were analyzed, 50, 100, and 400 mg, and four subjects were randomly selected from the 6 subjects tested to receive active treatment in each cohort examined in the SRD study.
# [2] = target: Rat α7 (Rattus norvegicus, UniProt Q05941); experiment: Binding to rat α7 NNR (Ki)
# Chain of Rat α7 (Q05941 23-502): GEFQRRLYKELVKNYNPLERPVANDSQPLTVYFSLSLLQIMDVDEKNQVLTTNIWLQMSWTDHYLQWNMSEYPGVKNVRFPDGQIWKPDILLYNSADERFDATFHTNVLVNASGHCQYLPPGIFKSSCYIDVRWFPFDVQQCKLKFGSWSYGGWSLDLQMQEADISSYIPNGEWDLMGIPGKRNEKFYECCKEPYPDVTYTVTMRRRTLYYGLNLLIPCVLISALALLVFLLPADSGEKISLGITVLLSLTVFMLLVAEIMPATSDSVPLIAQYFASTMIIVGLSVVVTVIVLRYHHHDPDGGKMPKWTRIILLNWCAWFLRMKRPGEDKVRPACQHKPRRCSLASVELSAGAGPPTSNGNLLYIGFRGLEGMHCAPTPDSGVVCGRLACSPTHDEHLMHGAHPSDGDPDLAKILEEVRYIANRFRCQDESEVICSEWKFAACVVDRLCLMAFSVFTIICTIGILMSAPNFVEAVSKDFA
# Experimental: (§1) Binding and function of the compounds to relevant receptor sites was determined in accordance with the techniques described in PCT WO 2008/057938. Inhibition constants (Ki values), reported in nM, were calculated from the IC50 values using the method of Cheng et al., Biochem. Pharmacol. 22: 3099 (1973). […] Thus, the compounds of the present invention are selective modulators of the α4β2 NNR subtype.
# [3] = target: T1, human α4β2 NNRs (Homo sapiens, UniProt P17787+P43681); experiment: Function at human α4β2 NNRs, SH-EP1/human a4b2 cells, FLIPR calcium; type: cell-based
# T1 construct: expressed in transfected cells; host or cells: SH-EP1
# T1 sequence (P43681 29-627 limits assumed): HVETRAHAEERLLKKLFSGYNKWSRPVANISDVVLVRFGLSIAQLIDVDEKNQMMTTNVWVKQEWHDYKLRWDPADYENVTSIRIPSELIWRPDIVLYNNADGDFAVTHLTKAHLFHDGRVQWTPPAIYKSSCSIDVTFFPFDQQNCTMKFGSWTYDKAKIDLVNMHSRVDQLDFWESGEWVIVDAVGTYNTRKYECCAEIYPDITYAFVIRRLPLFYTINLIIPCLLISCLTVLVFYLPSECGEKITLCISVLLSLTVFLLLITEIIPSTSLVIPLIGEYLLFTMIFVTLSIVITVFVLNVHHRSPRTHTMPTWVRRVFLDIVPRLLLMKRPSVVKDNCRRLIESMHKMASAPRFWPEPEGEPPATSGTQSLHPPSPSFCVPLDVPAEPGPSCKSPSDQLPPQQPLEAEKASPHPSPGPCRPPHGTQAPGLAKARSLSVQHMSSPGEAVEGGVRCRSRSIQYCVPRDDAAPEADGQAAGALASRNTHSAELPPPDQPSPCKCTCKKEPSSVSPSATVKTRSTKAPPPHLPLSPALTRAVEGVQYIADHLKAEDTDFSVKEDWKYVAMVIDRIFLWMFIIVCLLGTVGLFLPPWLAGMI
# T1 sequence (P17787 26-502): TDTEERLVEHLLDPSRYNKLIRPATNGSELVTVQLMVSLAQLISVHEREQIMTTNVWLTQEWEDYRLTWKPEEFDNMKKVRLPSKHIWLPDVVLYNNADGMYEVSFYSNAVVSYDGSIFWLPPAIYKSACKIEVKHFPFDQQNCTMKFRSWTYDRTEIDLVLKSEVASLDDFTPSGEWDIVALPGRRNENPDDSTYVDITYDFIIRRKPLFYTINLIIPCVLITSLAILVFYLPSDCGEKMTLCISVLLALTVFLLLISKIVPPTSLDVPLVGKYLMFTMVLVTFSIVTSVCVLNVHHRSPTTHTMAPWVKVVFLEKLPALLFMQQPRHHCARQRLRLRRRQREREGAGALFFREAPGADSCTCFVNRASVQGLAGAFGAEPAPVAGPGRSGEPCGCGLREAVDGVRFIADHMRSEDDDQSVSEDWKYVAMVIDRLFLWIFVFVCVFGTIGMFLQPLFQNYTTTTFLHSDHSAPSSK
# Experimental: as §1
# After the loading period, plates were equilibrated to room temperature and the cells exposed to the test article ([…]) or nicotine or buffer alone on a FLIPR (Molecular Devices). Fluorescence (at 485 nm) was monitored throughout the experiment. The test article change in fluorescence was compared to both a positive control (10 μM nicotine) and a negative control (buffer alone) to determine the percent response relative to that of nicotine.
# [4] = test system: rats; experiment: Seizure/convulsion induction after acute dose, rats; type: in vivo
# Experimental: For example, preclinically, Compound C induced seizures following acute doses:
# Likewise, Compound B induced convulsion in 1/6 male rats following an acute oral dose of 300 mg/kg.
# In fact, the effect of Compound A was not statistically different from the vehicle control.
# [5] = test system: mice; experiment: Seizure induction after acute dose, mice; type: in vivo; settings: female mice; acute oral dose of 400 mg/kg
# Source text: For example, preclinically, Compound C induced seizures following acute doses: […]
# [6] = target: Rat α4β2 (Rattus norvegicus, UniProt P09483+P12390); experiment: Binding to rat α4β2 NNR (Ki)
# Chain of Rat α4β2 (P09483 31-630): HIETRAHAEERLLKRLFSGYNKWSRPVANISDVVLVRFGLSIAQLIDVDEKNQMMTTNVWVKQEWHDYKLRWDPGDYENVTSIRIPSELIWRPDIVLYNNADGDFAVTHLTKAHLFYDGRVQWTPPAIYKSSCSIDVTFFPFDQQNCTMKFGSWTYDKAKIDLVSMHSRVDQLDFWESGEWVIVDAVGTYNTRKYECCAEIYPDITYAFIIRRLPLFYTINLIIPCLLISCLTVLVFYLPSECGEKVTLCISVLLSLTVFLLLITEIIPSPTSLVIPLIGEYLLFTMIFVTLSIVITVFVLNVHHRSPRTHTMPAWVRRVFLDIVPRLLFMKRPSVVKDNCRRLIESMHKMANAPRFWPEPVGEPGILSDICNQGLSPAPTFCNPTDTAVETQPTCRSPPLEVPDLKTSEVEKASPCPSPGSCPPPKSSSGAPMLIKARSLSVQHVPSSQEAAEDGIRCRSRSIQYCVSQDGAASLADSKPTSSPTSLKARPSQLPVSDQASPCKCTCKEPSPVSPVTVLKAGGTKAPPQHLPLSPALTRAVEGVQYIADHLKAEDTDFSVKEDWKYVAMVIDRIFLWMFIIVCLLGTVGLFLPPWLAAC
# Chain of Rat α4β2 (P12390 25-500): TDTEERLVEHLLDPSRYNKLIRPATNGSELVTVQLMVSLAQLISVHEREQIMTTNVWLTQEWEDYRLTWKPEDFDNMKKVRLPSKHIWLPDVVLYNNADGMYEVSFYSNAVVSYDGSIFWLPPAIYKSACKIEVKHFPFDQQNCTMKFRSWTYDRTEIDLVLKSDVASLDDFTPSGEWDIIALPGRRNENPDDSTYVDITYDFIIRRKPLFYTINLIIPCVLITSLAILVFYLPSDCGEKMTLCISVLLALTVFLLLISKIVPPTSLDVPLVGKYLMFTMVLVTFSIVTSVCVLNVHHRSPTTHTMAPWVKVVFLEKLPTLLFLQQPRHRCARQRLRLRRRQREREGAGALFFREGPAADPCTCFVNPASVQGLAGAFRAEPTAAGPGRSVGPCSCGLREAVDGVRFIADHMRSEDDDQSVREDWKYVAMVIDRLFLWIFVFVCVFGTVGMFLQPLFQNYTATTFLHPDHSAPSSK
# Experimental: as §1
# [7] = target: Human Ganglion (Homo sapiens, UniProt P30926+P32297); experiment: Function at human ganglion subtype, single point 100 μM; type: cell-based
# Experimental: as §1
# [8] = target: Human Muscle (Homo sapiens, UniProt P02708+P07510+Q07001); experiment: Function at human muscle subtype, single point 100 μM; type: cell-based
# Chain of Human Muscle (P02708 21-457): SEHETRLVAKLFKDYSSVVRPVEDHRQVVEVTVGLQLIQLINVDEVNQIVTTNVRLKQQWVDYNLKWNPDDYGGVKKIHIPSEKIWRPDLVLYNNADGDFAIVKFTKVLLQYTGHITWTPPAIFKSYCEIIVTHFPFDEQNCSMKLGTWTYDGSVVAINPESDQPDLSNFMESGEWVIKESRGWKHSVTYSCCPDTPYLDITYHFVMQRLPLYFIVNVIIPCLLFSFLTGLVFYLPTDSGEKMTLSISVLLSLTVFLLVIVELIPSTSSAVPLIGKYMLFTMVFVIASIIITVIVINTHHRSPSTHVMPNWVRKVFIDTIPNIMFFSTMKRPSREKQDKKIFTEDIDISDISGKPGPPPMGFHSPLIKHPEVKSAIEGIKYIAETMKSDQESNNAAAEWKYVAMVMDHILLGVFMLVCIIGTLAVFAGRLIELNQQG
# Chain of Human Muscle (P11230 24-501 partner): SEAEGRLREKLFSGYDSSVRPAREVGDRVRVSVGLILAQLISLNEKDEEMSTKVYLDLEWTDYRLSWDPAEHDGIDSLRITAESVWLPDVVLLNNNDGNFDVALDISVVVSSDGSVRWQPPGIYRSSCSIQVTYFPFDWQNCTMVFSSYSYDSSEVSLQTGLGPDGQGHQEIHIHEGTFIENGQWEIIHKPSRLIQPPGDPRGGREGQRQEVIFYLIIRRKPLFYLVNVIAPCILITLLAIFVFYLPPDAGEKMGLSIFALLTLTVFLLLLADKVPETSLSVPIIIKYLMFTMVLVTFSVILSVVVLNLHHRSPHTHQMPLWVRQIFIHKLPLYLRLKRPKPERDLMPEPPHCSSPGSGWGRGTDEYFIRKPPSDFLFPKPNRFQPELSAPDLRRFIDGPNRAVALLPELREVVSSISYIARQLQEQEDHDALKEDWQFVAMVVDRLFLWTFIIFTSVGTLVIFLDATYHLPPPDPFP
# Chain of Human Muscle (P07510 23-517): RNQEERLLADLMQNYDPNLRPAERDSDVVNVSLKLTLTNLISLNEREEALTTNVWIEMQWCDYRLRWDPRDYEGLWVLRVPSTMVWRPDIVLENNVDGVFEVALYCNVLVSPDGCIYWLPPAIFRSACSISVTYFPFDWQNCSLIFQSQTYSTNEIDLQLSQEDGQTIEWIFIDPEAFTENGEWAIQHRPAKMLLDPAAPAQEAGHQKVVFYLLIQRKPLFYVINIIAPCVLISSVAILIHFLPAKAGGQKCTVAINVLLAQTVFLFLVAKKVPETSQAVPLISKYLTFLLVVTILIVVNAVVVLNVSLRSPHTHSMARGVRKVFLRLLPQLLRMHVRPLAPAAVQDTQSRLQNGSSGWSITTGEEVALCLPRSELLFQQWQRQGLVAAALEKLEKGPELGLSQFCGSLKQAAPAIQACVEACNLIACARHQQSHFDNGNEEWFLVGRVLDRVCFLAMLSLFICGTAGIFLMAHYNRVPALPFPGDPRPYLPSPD
# Chain of Human Muscle (Q07001 22-517): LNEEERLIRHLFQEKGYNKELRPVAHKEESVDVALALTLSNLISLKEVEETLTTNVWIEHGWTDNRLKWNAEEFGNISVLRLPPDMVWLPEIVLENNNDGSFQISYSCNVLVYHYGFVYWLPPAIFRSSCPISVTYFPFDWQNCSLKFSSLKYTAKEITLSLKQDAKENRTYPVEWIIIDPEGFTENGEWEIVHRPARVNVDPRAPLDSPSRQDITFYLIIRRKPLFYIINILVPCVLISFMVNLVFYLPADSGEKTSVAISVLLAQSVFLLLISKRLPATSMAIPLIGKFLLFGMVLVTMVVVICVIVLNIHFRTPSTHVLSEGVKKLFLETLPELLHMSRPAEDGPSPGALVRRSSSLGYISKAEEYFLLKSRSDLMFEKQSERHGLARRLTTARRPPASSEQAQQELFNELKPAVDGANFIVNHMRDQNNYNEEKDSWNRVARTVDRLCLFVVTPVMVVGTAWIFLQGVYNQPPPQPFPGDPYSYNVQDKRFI
# Experimental: as §1
# [9] = target: Human α4β2 (Homo sapiens, UniProt P17787+P43681); experiment: Binding to human α4β2 NNR (Ki)
# Chain of Human α4β2 (P43681 29-627 limits assumed): as the sequence (P43681 29-627 limits assumed) above
# Chain of Human α4β2 (P17787 26-502): as the sequence (P17787 26-502) above
# Experimental: as §1
# [10] = test system: nicotinic; experiment: Standard receptor screen at 10 μM: nicotinic; type: binding; settings: hydrochloride salt
# Experimental: (§2) Both Compound A, (R)-7-(3-pyridinyl)-1,7-diazaspiro[4.4]nonane, and Compound B, (S)-7-(3-pyridinyl)-1,7-diazaspiro[4.4]nonane, each as their hydrochloride salts, were screened, at 10 μM concentration, against a standard set of receptors. […] Thus, the two stereoisomers differentiate from one another in terms of their non-nicotinic receptor binding characteristics. This differentiation is believed to translate into a differentiation between the ability of each of (R)-7-(3-pyridinyl)-1,7-diazaspiro[4.4]nonane and (S)-7-(3-pyridinyl)-1,7-diazaspiro[4.4]nonane to treat various disease states, including, for example, the ability of Compound A to enhance desensitization of α4β2 NNRs.
# [11] = test system: rat; experiment: Anxiety model, elevated plus maze (EPM); type: in vivo; settings: 0.02, 0.06, and 0.21 mg/kg i.p. 30 minutes before the test, FIG. 1
# Source text: The method, which detects anxiolytic activity, follows that described by Handley S. L. and Mithani S., Effects of alpha-adrenoceptor agonists and antagonists in a maze-exploration model of fear-motivated behaviour, Naunyn-Schmied. Arch. Pharmacol., 327, 1-5, 1984.
# Rodents avoid open spaces (the open arms of an elevated plus-maze). Anxiolytics increase exploratory activity in the open arms. The maze consisted of 4 arms of equal length and width arranged in the form of a plus sign (+). Two opposite arms were enclosed by walls (closed arms). The two other arms had no walls (open arms). The maze was raised above the floor. A rat was placed in the centre of the plus-maze and left to explore for 5 minutes. The number of entries into the open and closed arms and the time spent in the open arms were recorded.
# Ten (10) rats were studied per group. The test was performed blind. Compound A was evaluated at 0.02, 0.06, and 0.21 mg/kg, administered i.p. 30 minutes before the test, and compared with a vehicle control group. Clobazam, administered under the same experimental conditions, was used as reference substance. The experiment therefore included […].
# Data were analyzed by comparing the treated groups with the control group using unpaired tests.
# [12] = test system: A/J mice; experiment: Depression model, tail suspension (TS); type: in vivo; settings: 0.1 mg/kg (p-hydroxybenzoate), 10 min test
# Experimental: On the day of the test, A/J mice were brought to acclimate to the testing room for one hour. Eight animals were tested in each run. Following pretreatment with vehicle, desipramine (20 mg/kg) or Compound A, p-hydroxybenzoate (0.1, 0.3, and 1 mg/kg), a piece of transparent (Scotch) tape was attached to the tail of each mouse from about mid-tail with approximately 2 cm of tape past the end of the tail. The mice were then placed in the tail suspension chambers (white polyvinylchloride cubicles measuring 33×33×31.75 cm; Med Associates Inc., St Albans, Vt.). The mice were suspended from the hook of the TS force transducer via the tail tape. The force transducer transmitted the movements of the mouse to a recording device connected to a computer. Immobility time, struggle time, and intensity were automatically recorded for each min during the 10 min test period. Upon completion of the TS test, the mice were returned to their home cage and then to the animal colony. The TS chambers were cleaned between sessions. Data were analyzed by repeated measures and one-way analysis of variance (ANOVA) followed by Fisher PLSD post-hoc comparisons. An effect was considered significant if p<0.05.
# [13] = test system: animal models of depression and anxiety; experiment: Validated animal models of depression and anxiety (summary statement); settings: in vivo
# [14] = target: histamine H1 (Homo sapiens, UniProt P35367); experiment: Standard receptor screen at 10 μM: histamine H1; type: binding; settings: hydrochloride salt, read-out: inhibition at histamine H1 receptors
# Experimental: as §2
# [15] = po, 50 mg Compound C (n = 4), read-out: Mean (SD) Terminal Elimination Half-life (converted)
# [16] = po, 100 mg Compound C (n = 4), read-out: Mean (SD) Terminal Elimination Half-life (converted)
# [17] = po, 400 mg Compound C (n = 4), read-out: Mean (SD) Terminal Elimination Half-life (converted)
# [18] = SH-EP1/human a4b2 cells, FLIPR calcium, relative to 10 μM nicotine, read-out: Human α4β2 Emax (% of nic resp)
Structure (SMILES),t1/2 (mean) ([1]; 50 mg Compound C (n = 4)) [h],t1/2 (mean) ([1]; 100 mg Compound C (n = 4)) [h],t1/2 (mean) ([1]; 400 mg Compound C (n = 4)) [h],"Cmax ([1]; po, 50 mg Compound C (n = 4)) [ng/mL]","Tmax ([1]; po, 50 mg Compound C (n = 4)) [h]","AUC(0-inf) ([1]; po, 50 mg Compound C (n = 4)) [ng·h/mL]","half-life [1, 15] [h]","Cmax ([1]; po, 100 mg Compound C (n = 4)) [ng/mL]","Tmax ([1]; po, 100 mg Compound C (n = 4)) [h]","AUC(0-inf) ([1]; po, 100 mg Compound C (n = 4)) [ng·h/mL]","half-life [1, 16] [h]","Cmax ([1]; po, 400 mg Compound C (n = 4)) [ng/mL]","Tmax ([1]; po, 400 mg Compound C (n = 4)) [h]","AUC(0-inf) ([1]; po, 400 mg Compound C (n = 4)) [ng·h/mL]","half-life [1, 17] [h]","Emax [3, 18] [%]",Human Ganglion SP (100 μM) [7],Human Muscle SP (100 μM) [8],other results
"c1cncc(N2CCC3(CCCN3)C2)c1 (racemic) [Compound C, 7-(3-pyridinyl)-1,7-diazaspiro[4.4]nonane]",24.8,21.1,18.5,21.8,4.38,473,24.8,44.7,31.1,741,21.1,295,2,3680,18.5,43,15,22,"Ki [2]: > 10000 nM; EC50 ([3]; SH-EP1/human a4b2 cells, FLIPR calcium, read-out: Human α4β2 EC50): 9100 nM; induced seizures (animals affected) ([4]; female rats, acute IV dose of 100 mg/kg): 4/5 female rats; induced seizures (animals affected) ([4]; female rats, acute oral dose of 200 mg/kg): 1/5 female rats; induced seizures (animals affected) ([4]; female rats, acute oral dose of 800 mg/kg): 1/5 female rats; induced seizures (animals affected) ([4]; male rats, acute IV dose of 100 mg/kg): 1/5 male rats; induced seizures (animals affected) ([4]; male rats, acute oral dose of 800 mg/kg): 1/5 male rats; induced seizures (animals affected) [5]: 1/5 female mice; Ki [6]: 68 nM; Ki [9]: 34 nM"
"c1cncc(N2CC[C@]3(CCCN3)C2)c1 [Compound A, (R)-7-(3-pyridinyl)-1,7-diazaspiro[4.4]nonane]",27.5,23.7,22.4,10.3,4.38,256,27.5,22.7,3.25,451,23.7,163,2,2420,22.4,9,3,6,"inhibition at nicotinic receptors [10]: 99 % inhibition; half-life ([1]; oral, after Compound C 50, 100, 400 mg, read-out: terminal elimination half-life longer than that of Compound B (converted)): ~6 h; share of total exposure (Cmax and AUCinf) compared to the racemate, Compound C ([1]; oral administration of Compound C): approximately half; Ki ([2]; read-out: Rat α7 Ki): 5400 nM; Emax ([3]; SH-EP1, read-out: Emax at human α4β2 NNRs): 9%; EC50 ([3]; read-out: EC50 at human α4β2 NNRs): 84000 nM; Activity in the EPM [11]: anxiolytic-like activity; struggle intensity compared to saline [12]: increased struggle intensity; total time immobile compared to saline [12]: decreased total time immobile; effect on seizure induction ([4]; under the same conditions (as Compound B: acute oral dose of 300 mg/kg, male rats)): no effect on seizure induction; Efficacy in multiple validated animal models of depression and anxiety [13]: demonstrated efficacy; Ki ([6]; read-out: Rat α4β2 Ki): 74 nM; Ki ([9]; read-out: Human α4β2 Ki): 40 nM; inhibition at 10 µM [14]: 66%"
